The values that follow come from patent publication US8759339B2, “Pyrrolo[2,1-c][1,4]naphthodiazepine linked piperazine compounds and a process for the preparation thereof” (Council of Scientific & Industrial Research, priority 2011, dated 2014).

One data set deals with calf thymus DNA (CT-DNA). The data set can be described thus: Thermal denaturation studies with duplex-form calf thymus DNA. To be noted: [PND]/[DNA] molar ratio 1:5, CT-DNA 100 μM, ligand 20 μM, aqueous sodium phosphate buffer pH 7; for ΔTm after incubation at 37° C. for 0 hr: 0 hr at 37° C.; for ΔTm after incubation at 37° C. for 18 hrs: 18 hrs at 37° C. The class given is binding. As for the experimental part:
Compounds have been subjected to thermal denaturation studies with duplex-form calf thymus DNA (CT-DNA) using an modification of a reported procedure (Newman, M. S. Carcinog-compr. Surv. 1976, 1, 203; (b) Hecht, S. S.; Loy, M.; Hoffman, Carcinog-compr. Surv. 1976, 1, 325). Working solutions in aqueous buffer (10 mM NaH2PO4/Na2HPO4, 1 mM Na2EDTA, pH 7.00+0.01) containing CT-DNA (100 μm in phosphate) and the PND (pyrrolo naphtha diazepine) (20 μm) have been prepared by addition of concentrated PND (pyrrolo naphtha diazepine) solutions in DMSO to obtain a fixed [PND]/[DNA] molar ratio of 1:5. The DNA-PND (pyrrolo naphtha diazepine) solutions have been incubated at 37° C. for 0 and 18 h prior to analysis. Samples have been monitored at 260 nm using a Beckman DU-800 spectrophotometer fitted with high performance temperature controller, and heated at 1° C. min in the 40-110° C. range. DNA helix→coil transition temperatures (Tm) have been obtained from the maxima in the d(A260)/dT derivative plots. Drug-induced alterations in DNA melting behavior are given by: ΔTm=Tm(DNA+PND)−Tm(DNA alone), where the Tm value for the PND-free CT-DNA is 69.1±0.01.
The DNA binding activity for these novel substituted piperazine linked pyrrolo naphtho diazepine hybrids has been examined by thermal denaturation studies using calf thymus (CT) DNA. […] The data for some of the compounds are included in Table 1 for comparison.

Data set [1] can be described thus: In vitro anticancer activity, MTT assay. The class given is cell-based. As to conditions: kidney cancer cell line, MTT, 48 h continuous drug exposure. As for the experimental part:
(§1) In vitro biological activity studies were carried out at the pharmacology division, IICT, Hyderabad. The compounds were evaluated for in vitro anticancer activity against eight tumour cell lines derived from […] cancer types (breast, lung, liver, skeletal, kidney, prostrate, small intestine) as shown in Table 2. For each compound, dose response curves for each cell line were measured at a minimum of five concentrations at 10 fold dilutions. A protocol of 48 h continuous drug exposure was used and a MTT assay was used to estimate cell viability or growth. The concentration causing 50% inhibition (IC50) compared with the control was calculated. Some of the compounds have been evaluated for their in vitro cytotoxicity in eight cell lines from seven human cancer types. The results are expressed as IC50 determined relative to that of untreated control cells (Table-2).
(Tetrazolium dyes change colour on reduction, which living cells bring about.)

The test system of data set [2] is COS-1 kidney cancer cell line. Description: In vitro anticancer activity, MTT assay. To be noted: for in-vitro cytotoxicity in kidney cancer cell line (COS-1): result in words. The class given is cell-based. As for the experimental part:
as §1

In data set [3] the test system is IEC-6 small intestine cell line. Description: In vitro anticancer activity, MTT assay. The class given is cell-based. As to conditions: for in-vitro cytotoxicity in small intestine cancer cell line (IEC-6): result in words. As for the experimental part: as §1
Data set [4] has as its system L-6 skeletal cancer cell line. The data set can be described thus: In vitro anticancer activity, MTT assay. The class given is cell-based. As to conditions: result in words. As for the experimental part: as §1
The test system of another data set is L-6. The data set can be described thus: In vitro anticancer activity, MTT assay. The class given is cell-based. As to conditions: skeletal cancer cell line; MTT, 48 h continuous drug exposure. As for the experimental part:
as §1

Data set [5] has as its system A549 lung cancer cell line. The data set can be described thus: In vitro anticancer activity, MTT assay. The class given is cell-based, human. As to conditions: for in-vitro cytotoxicity in lung cancer cell line (A549): result in words. As for the experimental part:
as §1

The test system of data set [6] is NCIH460 large cell lung cancer cell line. The data set can be described thus: In vitro anticancer activity, MTT assay. The class given is cell-based, human. As to conditions: for IC50: large cell lung cancer cell line, MTT, 48 h continuous drug exposure; for in-vitro cytotoxicity in large cell lung cancer cell line (NCIH460): result in words. As for the experimental part:
as §1

The test system of data set [7] is MCF7 breast cancer cell line. Description: In vitro anticancer activity, MTT assay. The class given is cell-based, human. To be noted: for IC50: breast cancer cell line, MTT, 48 h continuous drug exposure; for in-vitro cytotoxicity in breast cancer cell line (MCF-7): result in words. As for the experimental part:
as §1

Data set [8] concerns PC-3 prostrate cancer cell line. Description: In vitro anticancer activity, MTT assay. The class given is cell-based, human. To be noted: for IC50: prostrate cancer cell line, MTT, 48 h continuous drug exposure; for in-vitro cytotoxicity in prostrate cancer cell line (PC-3): result in words. As for the experimental part: as §1
Data set [9] deals with HEPG2 liver cancer cell line. The data set can be described thus: In vitro anticancer activity, MTT assay. The class given is cell-based, human. As to conditions: for in-vitro cytotoxicity in liver cancer cell line (HEPG2): result in words. As for the experimental part:
as §1

Each structure is given as a SMILES string. Where two headings read alike, the source gives them in different places.

What is called IC50 is the concentration at which inhibition is half-maximal.

As for `COc1cc2cc3c(cc2cc1OCCN1CCN(c2ccccn2)CC1)C(=O)N1CCC[C@H]1C=N3` [23a, 9-Methoxy-8-(2-[4-(2-pyridyl)piperazino]ethoxy)-(13aS)-1,2,3,13a-tetrahydro-5H-pyrrolo[2,1-c][1,4]naphthodiazepin-5-one], the “ΔTm after incubation at 37° C. for 0 hr” value in the data set on calf thymus DNA (CT-DNA) is 5.0 °C. Also, in the data set on calf thymus DNA (CT-DNA), the “ΔTm after incubation at 37° C. for 18 hrs” value is 6.8 °C. The IC50 in data set [1] (COS-1) is 4320 nM; in data set [2] (COS-1, range over the listed compounds, exposure period of at least 48 hrs, read-out: IC50 against kidney cancer cell lines), 800 to 4320 nM; in data set [3] (IEC-6, range over the listed compounds, exposure period of at least 48 hrs, read-out: IC50 against small intestine cancer cell lines), 10 to 5840 nM; in data set [3] (IEC-6, small intestine cell line, MTT, 48 h continuous drug exposure, read-out: IC50 IEC-6), 10 nM; in the data set with L-6, 740 nM; in data set [5] (Homo sapiens, A549, lung cancer cell line, MTT, 48 h continuous drug exposure, read-out: IC50 A549), 1990 nM. Also, the half-inhibitory concentration (IC50) in data set [5] (Homo sapiens, A549, range over the listed compounds, exposure period of at least 48 hrs, read-out: IC50 against lung cancer cell lines) was 20 to 11900 nM; in data set [6] (Homo sapiens, NCI-H460) it was 110 nM; in data set [7] (Homo sapiens, MCF7) it was 20 nM; in data set [8] (Homo sapiens) it was 100 nM; in [9] (Homo sapiens, HepG2, liver cancer cell line, MTT, 48 h continuous drug exposure, read-out: IC50 HEPG2) it was 40 nM; in data set [9] (Homo sapiens, HepG2, range over the listed compounds, exposure period of at least 48 hrs, read-out: IC50 against liver cancer cell lines), 20 to 7320 nM. Moreover, in [2], the “in-vitro cytotoxicity in kidney cancer cell line (COS-1)” value is given as “exhibiting in-vitro cytotoxicity”. For the same compound, in [3], the “in-vitro cytotoxicity in small intestine cancer cell line (IEC-6)” value was “exhibiting in-vitro cytotoxicity”. The “in-vitro cytotoxicity in skeletal cancer cell line (L-6)” value in data set [4] is listed as “exhibiting in-vitro cytotoxicity”. Also, the “in-vitro cytotoxicity in lung cancer cell line (A549)” value in data set [5] is on record as “exhibiting in-vitro cytotoxicity”. The “in-vitro cytotoxicity in large cell lung cancer cell line (NCIH460)” value in [6] is “exhibiting in-vitro cytotoxicity”. In [7], the “in-vitro cytotoxicity in breast cancer cell line (MCF-7)” value is on record as “exhibiting in-vitro cytotoxicity”. In addition, the “in-vitro cytotoxicity in prostrate cancer cell line (PC-3)” value in data set [8] is reported as “exhibiting in-vitro cytotoxicity”. For the same compound, the “in-vitro cytotoxicity in liver cancer cell line (HEPG2)” value in data set [9] is on record as “exhibiting in-vitro cytotoxicity”.
With `COc1cc2cc3c(cc2cc1OCCN1CCN(c2ncccn2)CC1)N=C[C@@H]1CCCN1C3=O` [13a, 8-Methoxy-9-(2-[4-(2-pyrimidinyl)piperazino]ethoxy)-(13aS)-1,2,3,13a-tetrahydro-5H-pyrrolo[2,1-c][1,4]naphthodiazepin-5-one], the “ΔTm after incubation at 37° C. for 0 hr” value in the data set with calf thymus DNA (CT-DNA) was found to be 5.0 °C. Moreover, the “ΔTm after incubation at 37° C. for 18 hrs” value with calf thymus DNA (CT-DNA) was 6.5 °C. The IC50 in [1] (read-out: IC50 COS-1) came out at 1870 nM; in data set [3] (small intestine cell line, MTT, 48 h continuous drug exposure, read-out: IC50 IEC-6) it was 20 nM; in the data set with L-6, 610 nM; in data set [5] (lung cancer cell line, MTT, 48 h continuous drug exposure, read-out: IC50 A549) it was 860 nM; in [6], 260 nM; in data set [7], 40 nM. In addition, the 50% inhibitory concentration (IC50) stood at 80 nM in data set [8] and 40 nM in data set [9] (liver cancer cell line, MTT, 48 h continuous drug exposure, read-out: IC50 HEPG2). Also, the “in-vitro cytotoxicity in kidney cancer cell line (COS-1)” value in data set [2] was “exhibiting in-vitro cytotoxicity”. Besides, the “in-vitro cytotoxicity in small intestine cancer cell line (IEC-6)” value in [3] is listed as “exhibiting in-vitro cytotoxicity”. The “in-vitro cytotoxicity in skeletal cancer cell line (L-6)” value in [4] was “exhibiting in-vitro cytotoxicity”. The “in-vitro cytotoxicity in lung cancer cell line (A549)” value in data set [5] is on record as “exhibiting in-vitro cytotoxicity”. Further, the “in-vitro cytotoxicity in large cell lung cancer cell line (NCIH460)” value in data set [6] is “exhibiting in-vitro cytotoxicity”. Moreover, the “in-vitro cytotoxicity in breast cancer cell line (MCF-7)” value in [7] is given as “exhibiting in-vitro cytotoxicity”. In data set [8], the “in-vitro cytotoxicity in prostrate cancer cell line (PC-3)” value was “exhibiting in-vitro cytotoxicity”. The “in-vitro cytotoxicity in liver cancer cell line (HEPG2)” value in [9] is reported as “exhibiting in-vitro cytotoxicity”.
